Measured values as given in PubChem BioAssay (NCI).
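96-well plates; 48 h exposure; 5 concentrations. Endpoints by linear interpolation between flanking doses. Not reached: highest tested concentration assigned. Definition used: TGI = concentration required for complete inhibition of growth.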

What was measured:
Experiment in all cases: NCI anticancer screen, dose series, 48 h
DLD-1 colon = test system: DLD-1 colon
DMS 114 small cell lung = test system: DMS 114 small cell lung
DMS 273 small cell lung = test system: DMS 273 small cell lung
HOP-62 NSCLC = test system: HOP-62 NSCLC
KM20L2 colon = test system: KM20L2 colon
LXFL 529 NSCLC = test system: LXFL 529 NSCLC
M19-MEL melanoma = test system: M19-MEL melanoma
RPMI-8226 leukemia = test system: RPMI-8226 leukemia
RXF-631 renal = test system: RXF-631 renal
SN12C renal = test system: SN12C renal
SNB-78 CNS = test system: SNB-78 CNS
XF 498 CNS = test system: XF 498 CNS
HOP-18 NSCLC = test system: HOP-18 NSCLC

SMILES | TGI (DLD-1 colon) | TGI (DMS 114 small cell lung) | TGI (DMS 273 small cell lung) | TGI (HOP-62 NSCLC) | TGI (KM20L2 colon) | TGI (LXFL 529 NSCLC) | TGI (M19-MEL melanoma) | TGI (RPMI-8226 leukemia) | TGI (RXF-631 renal) | TGI (SN12C renal) | TGI (SNB-78 CNS) | TGI (XF 498 CNS) | TGI (HOP-18 NSCLC)
NC(N)=NS(=O)(=O)c1ccc(NC(=O)c2cccc3c(N)c4ccccc4nc23)cc1 | > 100 µM | > 100 µM | > 100 µM | > 100 µM | > 100 µM | > 100 µM | > 100 µM | > 100 µM | > 100 µM | > 100 µM | > 100 µM | > 100 µM | –
COc1ccc(/C=C2\CCC(CCN3CCOCC3)C2=O)cc1 (configuration not stated) | > 100 µM | > 100 µM | > 100 µM | > 100 µM | > 100 µM | > 100 µM | > 100 µM | > 100 µM | – | > 100 µM | > 100 µM | > 100 µM | > 100 µM
COC(=O)C(=O)C(/C(=N/N)C(=O)Nc1ccccc1C(N)=O)c1nc2ccc([N+](=O)[O-])cc2[nH]c1=O (configuration not stated) | > 100 µM | > 100 µM | > 100 µM | > 100 µM | > 100 µM | > 100 µM | > 100 µM | > 100 µM | – | > 100 µM | > 100 µM | > 100 µM | –
O=C(O)CCN(CCCN(CCC(=O)O)CCC(=O)O)CCC(=O)O | > 100 µM | > 100 µM | > 100 µM | > 100 µM | > 100 µM | > 100 µM | > 100 µM | > 100 µM | > 100 µM | > 100 µM | – | > 100 µM | > 100 µM
CCCCCCCCCCOC(=O)NCCC | > 100 µM | – | 54.9 µM | – | 62.2 µM | > 100 µM | > 100 µM | 43.3 µM | > 100 µM | 86.3 µM | – | 43.6 µM | > 100 µM
CCOC(=O)C1SC(=Nc2ccc(Cl)cc2Cl)N=C1C (configuration not stated) | > 100 µM | > 100 µM | > 100 µM | > 100 µM | > 100 µM | > 100 µM | > 100 µM | – | – | > 100 µM | > 100 µM | 94.1 µM | > 100 µM
CN(/N=C\c1ccnc2ccccc12)c1ccccc1 | 64.6 µM | 48.7 µM | 39.7 µM | 81.6 µM | – | 79.7 µM | 54 µM | > 100 µM | – | > 100 µM | > 100 µM | 47.5 µM | > 100 µM
CC(=O)NC1COC(COC(=O)CCCCCCCCCCNC(=O)c2ccc([N+](=O)[O-])c3c(=O)c4ccccc4[nH]c23)C(O)C1OC(C)C(=O)NC(C(=O)NC(CCC(N)=O)C(=O)OCc1ccccc1)C(C)C (configuration not stated) | 10.1 µM | 30.4 µM | 27.3 µM | 24.4 µM | 33.5 µM | > 60.6 µM | 10.7 µM | 23.1 µM | > 100 µM | > 92.6 µM | > 22.8 µM | 34.8 µM | 43.9 µM
O=C1C(c2ccccc2)=C(c2ccccc2)C(c2ccc(Sc3ccc(C4=C(c5ccccc5)C(=O)C(c5ccccc5)=C4c4ccccc4)cc3)cc2)=C1c1ccccc1 | > 100 µM | > 100 µM | > 100 µM | > 100 µM | > 100 µM | – | > 100 µM | > 100 µM | > 100 µM | > 100 µM | > 100 µM | > 100 µM | –
C/C(=N/O)c1sc(-c2nc(C)c(/C(C)=N\O)s2)nc1C | > 100 µM | > 100 µM | > 100 µM | – | > 100 µM | > 100 µM | > 100 µM | > 100 µM | > 100 µM | > 100 µM | > 100 µM | > 100 µM | > 100 µM
c1ccc2c(CNCCCCCCCCNCc3cccc4ccccc34)cccc2c1 | 4.07 µM | 3.48 µM | 3.68 µM | 30.1 µM | 3.22 µM | 3.22 µM | 3.12 µM | 3.87 µM | – | 19.2 µM | 4.45 µM | 3.24 µM | 18.5 µM
